Measured values: US9643964B2, “3-(2-aminopyrimidin-4-yl)-5-(3-hydroxypropynyl)-1H-pyrrolo[2,3-C]pyridine derivatives as NIK inhibitors for the treatment of cancer” (Janssen Pharmaceutica NV, priority 2013, dated 2017)

Experiments:
[1] = molecular target: Recombinant Human NF-kappaB-Inducing Kinase (NIK/MAP3K14) (Homo sapiens, UniProt Q99558); assay: Biological Assay A2: inhibition of auto-phosphorylation of recombinant human NIK/MAP3K14 (AlphaScreen); type: biochemical; conditions: auto-phosphorylation; averaged over all measurements on all batches; read-out: αscreen IC50
Recombinant Human NF-kappaB-Inducing Kinase (NIK/MAP3K14), sequence (Q99558 whole entry): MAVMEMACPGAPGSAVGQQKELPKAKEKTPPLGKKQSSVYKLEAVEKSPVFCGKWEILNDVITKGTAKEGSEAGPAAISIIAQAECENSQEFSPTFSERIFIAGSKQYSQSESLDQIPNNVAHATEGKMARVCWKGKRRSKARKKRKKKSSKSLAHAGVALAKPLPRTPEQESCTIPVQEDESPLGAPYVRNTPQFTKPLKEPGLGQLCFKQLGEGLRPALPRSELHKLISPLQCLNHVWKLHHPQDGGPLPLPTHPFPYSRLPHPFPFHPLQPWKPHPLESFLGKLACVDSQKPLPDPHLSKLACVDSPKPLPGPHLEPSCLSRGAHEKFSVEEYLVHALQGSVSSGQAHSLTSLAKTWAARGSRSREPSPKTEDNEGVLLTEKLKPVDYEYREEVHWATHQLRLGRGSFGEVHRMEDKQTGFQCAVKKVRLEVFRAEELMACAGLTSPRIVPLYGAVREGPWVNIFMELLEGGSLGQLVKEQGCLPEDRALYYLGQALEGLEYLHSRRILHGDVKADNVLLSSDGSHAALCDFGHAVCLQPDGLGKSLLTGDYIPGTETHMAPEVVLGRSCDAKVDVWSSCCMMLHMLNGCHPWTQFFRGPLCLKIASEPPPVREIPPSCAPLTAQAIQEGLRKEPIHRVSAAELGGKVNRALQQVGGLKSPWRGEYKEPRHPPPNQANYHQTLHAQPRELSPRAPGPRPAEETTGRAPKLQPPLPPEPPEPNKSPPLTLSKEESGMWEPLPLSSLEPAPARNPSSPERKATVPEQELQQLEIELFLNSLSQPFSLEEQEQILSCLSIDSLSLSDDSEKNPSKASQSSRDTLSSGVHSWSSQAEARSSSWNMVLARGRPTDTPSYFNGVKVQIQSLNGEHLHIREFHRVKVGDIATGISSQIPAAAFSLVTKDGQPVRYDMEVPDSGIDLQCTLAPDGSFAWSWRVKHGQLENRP
Procedure: Inhibition of Auto-Phosphorylation of Recombinant Human NF-kappaB-Inducing Kinase (NIK/MAP3K14) Activity (AlphaScreen®)
NIK/MAP3K14 auto-phosphorylation activity was measured using the AlphaScreen® (αscreen) format (Perkin Elmer). All compounds tested were dissolved in dimethyl sulfoxide (DMSO) and further dilutions were made in assay buffer. Final DMSO concentration was 1% (v/v) in assays. Assay buffer was 50 mM Tris pH 7.5 containing 1 mM EGTA (ethylene glycol tetraacetic acid), 1 mM DTT (dithiothreitol), 0.1 mM Na3VO4, 5 mM MgCl2, 0.01% Tween 20. Assays were carried out in 384 well Alphaplates (Perkin Elmer). Incubations consisted of compound, 25 microM Adenosine-5′-triphosphate (ATP), and 0.2 nM NIK/MAP3K14. Incubations were initiated by addition of GST-tagged NIK/MAP3K14 enzyme, carried out for 1 h at 25° C. and terminated by addition of stop buffer containing anti-phospho-IKK Ser176/180 antibody. Protein A Acceptor and Glutathione-Donor beads were added before reading using an EnVision® Multilabel Plate Reader (Perkin Elmer). Signal obtained in the wells containing blank samples was subtracted from all other wells and IC50's were determined by fitting a sigmoidal curve to % inhibition of control versus Log10 compound concentration.

[2] = tested on: LP-1 cells; assay: Biological Assay C: antiproliferative activity on LP-1 cells (CellTiter-Glo); type: cell-based, human; conditions: Homo sapiens, LP-1, 72 h, 72 hr treatment; averaged values
Procedure: (§1) Determination of Antiproliferative Activity on LP-1, L-363 and JJN-3 Cells
(§2) All compounds tested were dissolved in DMSO and further dilutions were made in culture medium. Final DMSO concentration was 0.3% (v/v) in cell proliferation assays. Viability was assessed using CellTiter-Glo cell viability assay kit (Promega). The human LP-1, L-363 and JJN-3 cells (DSMZ) were cultured in RPMI 1640 medium supplemented with 2 mM L-glutamine, and 10% fetal calf serum (PAA). Cells were routinely kept as suspension cells at 37° C. in a humidified 5% CO2 atmosphere. Cells were passaged at a seeding density of 0.2×10^6/ml twice a week. Cells were seeded in black tissue culture treated 96-well plates (Perkin Elmer). Densities used for plating ranged from 2,000 to 6,000 cells per well in a total volume of 75 μl medium. After twenty four hours, drugs and/or solvents were added (25 μl) to a final volume of 100 μl. Following 72 hr of treatment plates were removed from the incubator and allowed to equilibrate to room temperature for approx 10 min. 100 μl CellTiter-Glo reagent was added to each well that was then covered (Perkin Elmer Topseal) and shaken on plate shaker for 10 min. Luminescence was measured on a HTS Topcount (Perkin Elmer). Within an experiment, the results for each treatment were the mean of 2 replicate wells. For initial screening purposes, compounds were tested using a 9 point dilution curve (serial 1:3 dilutions). For each experiment, controls (containing no drug) and a blank incubation (containing cells read at the time of compound addition) were run in parallel. The blank value was subtracted from all control and sample values. For each sample, the mean value for cell growth (in relative light units) was expressed as a percentage of the mean value for cell growth of the control.

[3] = tested on: L-363 cells; assay: Biological Assay C: antiproliferative activity on L-363 cells (CellTiter-Glo); type: cell-based, human; conditions: Homo sapiens, L-363, 72 h, 72 hr treatment; averaged values
Procedure: as §1, §2

[4] = tested on: JJN-3 cells; assay: Biological Assay C: antiproliferative activity on JJN-3 cells (CellTiter-Glo); type: cell-based, human; conditions: Homo sapiens, JJN-3, 72 h, 72 hr treatment; averaged values
Procedure: as §1, §2

| Compound | IC50 [1] [nM] | EC50 [2] [nM] | EC50 [3] [nM] | EC50 [4] [nM] |
| --- | --- | --- | --- | --- |
| COCCCn1cc(-c2nc(N)ncc2F)c2cc(C#CC3(O)CCCC3)nc(C3CC3)c21 [Compound 93] | 10 | 860 | 250 | 310 |
| Nc1ncc(F)c(-c2cn(C3COC3)c3c(C4CC4)nc(C#CC4(O)CCCC4)cc23)n1 [Compound 94] | 31 | 2700 | 200 | 300 |
| COCCCn1cc(-c2nc(N)ncc2F)c2cc(C#CC3(O)CCC3)ncc21 [Compound 95] | 7 | 470 | 95 | 150 |
| COCCCn1cc(-c2nc(N)ncc2F)c2cc(C#CC(C)(O)C3CC3)nc(C(F)F)c21 (stereo not drawn) [Compound 96] | 170 | > 10000 | 6600 | > 10000 |
| CN1CC(n2cc(-c3nc(N)ncc3C(F)(F)F)c3cc(C#CC(C)(O)C4CC4)ncc32)C1 (stereo not drawn) [Compound 99] | 110 | 2000 | 1100 | 1100 |
| CC(O)(C#Cc1cc2c(-c3nc(N)ncc3C(F)(F)F)cn(C3COC3)c2cn1)C1CC1 (stereo not drawn) [Compound 100] | 61 | 3000 | 1500 | 1400 |
| COCc1cnc(N)nc1-c1cn(C(C)C)c2cnc(C#CC(C)(O)C3CC3)cc12 (stereo not drawn) [Compound 143] | 74 | – | 170 | 270 |
| COCc1cnc(N)nc1-c1cn(C(C)C)c2cnc(C#CC(C)(C)O)cc12 [Compound 144] | 37 | – | 16 | 35 |
| CC(O)(C#Cc1cc2c(-c3nc(N)ncc3F)cn(C3CN(CC(F)(F)F)C3)c2cn1)C1CC1 (stereo not drawn) [Compound 145] | 140 | – | 340 | 260 |
| CC(O)(C#Cc1cc2c(-c3nc(N)ncc3F)cn(C3CN(CC4CCCC4)C3)c2cn1)C1CC1 (stereo not drawn) [Compound 146] | 200 | – | 580 | 450 |
| CCCCC(=O)NCCCn1cc(-c2ccnc(N)n2)c2cc(C#CC(C)(C)O)ncc21 [Compound 147] | 130 | – | 530 | 1400 |
| CC(=O)NCCCn1cc(-c2ccnc(N)n2)c2cc(C#CC(C)(C)O)ncc21 [Compound 148] | 64 | – | 7600 | 9100 |
| COc1cnc(N)nc1-c1cn(C(C)C)c2cnc(C#CC(C)(O)C3CC3)cc12 (stereo not drawn) [Compound 149] | 22 | – | 22 | 38 |
| CC(C)n1cc(-c2nc(N)ncc2F)c2cc(C#CC3(O)CCN(C)C3=O)ncc21 (stereo not drawn) [Compound 150] | 210 | – | 1500 | 1600 |
| CC(C)(O)C#Cc1cc2c(-c3nc(N)ncc3F)cn(C3CCN(CCF)C3)c2cn1 (stereo not drawn) [Compound 151] | 54 | – | 45 | 46 |
| CC(O)(C#Cc1cc2c(-c3nc(N)ncc3F)cn(C3CCN(CCC(F)(F)F)C3)c2cn1)C1CC1 (stereo not drawn) [Compound 152] | 47 | – | 75 | 48 |
| CC(O)(C#Cc1cc2c(-c3nc(N)ncc3F)cn(C3CCN(CCF)C3)c2cn1)C1CC1 (stereo not drawn) [Compound 153] | 74 | – | 150 | 130 |
| CC(=O)N1CC(n2cc(-c3nc(N)ncc3F)c3cc(C#CC(C)(O)C4CC4)ncc32)C1 (stereo not drawn) [Compound 154] | 190 | – | 2800 | 4700 |
| COCCN1CC(n2cc(-c3nc(N)ncc3F)c3cc(C#CC(C)(O)C4CC4)ncc32)C1 (stereo not drawn) [Compound 155] | 140 | – | 380 | 400 |
| COCCCN1CC(n2cc(-c3nc(N)ncc3F)c3cc(C#CC(C)(O)C4CC4)ncc32)C1 (stereo not drawn) [Compound 156] | 190 | – | 360 | 320 |
